Assay results as given in US11319303B2 (WIGEN BIOMEDICINE TECHNOLOGY (SHANGHAI) CO., LTD., priority 2017, dated 2022).
pIC50: −log10 of the molar value.

biological target: LC3B (Homo sapiens, UniProt Q9GZQ8); assay: Fluorescence Polarization (FP) Assay: displacement of FITC-labeled peptide from GST-LC3B; type: binding; conditions: Fluorescence Polarization assay; GST-LC3B 180 nM, FITC-labeled peptide 18 nM, 25° C.; read-out: IC50
Method: The compounds of the present invention for regulating the autophagy-related protein LC3B were tested by Fluorescence Polarization (FP) Assay.
Fluorescence Polarization (FP) Assay Test

With O=C1CC(COc2cccc(F)c2)CC(=O)C1=CNCCN1CCN(CCO)CC1 (stereo not drawn) [Compound 32, 5-((3-fluorophenoxy)methyl)-2-(((2-(4-(2-hydroxyethyl)piperazin-1-yl)ethyl)amino)methylene) cyclohexane-1,3-dione] as the molecule, how does the pIC50 read?
The pIC50 was 4.82 to 5.52.

With NC(=O)C1C(=O)C(=CNCCN2CCN(CCO)CC2)C(=O)CC1c1ccccc1 (stereo not drawn) [Compound 333, 3-(((2-(4-(2-hydroxyethyl)piperazin-1-yl)ethyl)amino)methylene)-2,4-dioxo-6-phenylcyclohexane-1-carboxamide] as the molecule, how does the pIC50 read?
The pIC50 was 4.00 to 4.82.

With O=C1COCC(=O)C1=CNCCN1CCN(CCO)CC1 [Compound 12, 4-(((2-(4-(2-hydroxyethyl)piperazin-1-yl)ethyl)amino)methylene)-2H-pyran-3,5(4H,6H)-dione] as the molecule, how does the pIC50 read?
Its pIC50 is 3.00 to 4.00.

With C=CC(=O)N1CCN(CCNC=C2C(=O)CC(c3ccc(C)cc3)CC2=O)CC1 (stereo not drawn) [Compound 232, 2-(((2-(4-acryloylpiperazin-1-yl)ethyl)amino)methylene)-5-(p-tolyl) cyclohexane-1,3-dione] as the molecule, how does the pIC50 read?
Its pIC50 is over 5.52.

With O=C1CC(c2ccccc2)CC(=O)C1=CNCCN1CCN(C(=O)c2ccc([N+](=O)[O-])cc2)CC1 (stereo not drawn) [Compound 217, 2-(((2-(4-(4-nitrobenzoyl)piperazin-1-yl)ethyl)amino)methylene)-5-phenylcyclohexane-1,3-dione] as the molecule, how does the pIC50 read?
The pIC50 was 4.82 to 5.52.

CN(C)c1ccc(Br)c(C2CC(=O)C(=CNCCN3CCN(CCO)CC3)C(=O)C2)c1 (stereo not drawn) [Compound 332, 5-(2-bromo-5-(dimethylamino)phenyl)-2-(((2-(4-(2-hydroxyethyl)piperazin-1-yl)ethyl)amino)methylene) cyclohexane-1,3-dione] was tested. Which pIC50 did it give?
Its pIC50 is over 5.52.

CC1C(=O)/C(=C/NCCN2CCN(CCO)CC2)C(=O)CC1(O)c1ccccc1 (stereo not drawn) [Compound 325, 5-hydroxy-2-(((2-(4-(2-hydroxyethyl)piperazin-1-yl)ethyl)amino)methylene)-4-methyl-5-phenylcyclohexane-1,3-dione] was tested. Which pIC50 did it give?
The pIC50 was 4.00 to 4.82.

O=C1CC([C@H]2O[C@@H](n3cnc4c(N5CCOCC5)ncnc43)[C@H](O)[C@@H]2O)CC(=O)C1=CNCCN1CCN(CCO)CC1 (stereo partly drawn) [Compound 114, 5-((2R, 3S, 4R, 5R)-3,4-dihydroxy-5-(6-morpholino-9H-purin-9-yl)tetrahydrofuran-2-yl)-2-(((2-(4-(2-hydroxyethyl)piperazin-1-yl)ethyl)amino)methylene)cyclohexane-1,3-dione] was tested. Which pIC50 did it give?
The pIC50 was 3.00 to 4.00.

With CN(C)CCNC=C1C(=O)CC(C(=O)Nc2ccc(-c3ccccc3)cc2)CC1=O (stereo not drawn) [Compound 389] as the molecule, how does the pIC50 read?
Its pIC50 is over 5.52.

How did the pIC50 turn out when CN(C)C=C1C(=O)CC(c2cccc3c2CCCC3)CC1=O (stereo not drawn) [Compound 280, 2-((dimethylamino)methylene)-5-(5,6,7,8-tetrahydro-naphthalen-1-yl)cyclohexane-1,3-dione] was run?
Its pIC50 is over 5.52.

With O=C1Nc2ccccc2C(=O)/C1=C/NCCN1CCN(CCO)CC1 [Compound 107, 3-(((2-(4-(2-hydroxyethyl)piperazin-1-yl)ethyl)amino)methylene)quinoline-2,4(1H,3H)-dione] as the molecule, how does the pIC50 read?
Its pIC50 is 4.00 to 4.82.

How did the pIC50 turn out when CN(C)CCCNC=C1C(=O)CC(c2ccccc2)CC1=O (stereo not drawn) [Compound 202, 2-(((3-(dimethylamino)propyl)amino)methylene)-5-phenylcyclohexane-1,3-dione] was run?
Its pIC50 is 4.00 to 4.82.

With CCN(CC)CCNC=C1C(=O)CC(c2ccccc2)CC1=O (stereo not drawn) [Compound 120, 2-(((2-(diethylamino)ethyl)amino)methylene)-5-phenylcyclo-hexane-1,3-dione] as the molecule, how does the pIC50 read?
The pIC50 was over 5.52.

With O=C1CN(C(=O)c2ccccc2)CC(=O)C1=CNCCN1CCN(CCO)CC1 [Compound 104, 1-benzoyl-4-(((2-(4-(2-hydroxyethyl)piperazin-1-yl)ethyl)amino)methylene)-piperidine-3,5-dione] as the molecule, how does the pIC50 read?
The pIC50 was 4.00 to 4.82.

How did the pIC50 turn out when O=C1CC(c2c[nH]c3cccc(Cl)c23)CC(=O)C1=CNCCN1CCN(CCO)CC1 (stereo not drawn) [Compound 394, 5-(4-chloro-1H-indol-3-yl)-2-(((2-(4-(2-ethoxyl)piperazin-1-yl)ethyl)amino)methylene) cyclohexane-1,3-dione] was run?
The pIC50 was over 5.52.

CN1CCN(c2ccc(C3CC(=O)C(=CNCCN4CCN(CCO)CC4)C(=O)C3)cc2)CC1 (stereo not drawn) [Compound 36, 2-(((2-(4-(2-hydroxyethyl)piperazin-1-yl)ethyl)amino)methylene)-5-(4-(4-methylpiperazin-1-yl)phenyl) cyclohexane-1,3-dione] was tested. Which pIC50 did it give?
Its pIC50 is 3.00 to 4.00.

With O=C1CC(c2nccs2)CC(=O)C1=CNCCN1CCN(CCO)CC1 (stereo not drawn) [Compound 57, 2-(((2-(4-(2-hydroxyethyl)piperazin-1-yl)ethyl)amino)methylene)-5-(thiazol-2-yl) cyclohexane-1,3-dione] as the molecule, how does the pIC50 read?
The pIC50 was 4.00 to 4.82.

Cc1cccc2[nH]cc(C3CC(=O)C(=CN(C)C)C(=O)C3)c12 (stereo not drawn) [Compound 298, 2-((dimethylamino)methylene)-5-(4-methyl-1H-indol-3-yl)cyclohexane-1,3-dione] was tested. Which pIC50 did it give?
The pIC50 was over 5.52.

With O=C(O)CNC(=O)CNC=C1C(=O)CC(c2ccccc2)CC1=O (stereo not drawn) [Compound 210, ((2,6-dioxo-4-phenylcyclo-hexylidene)methyl) glycylglycine] as the molecule, how does the pIC50 read?
Its pIC50 is 4.00 to 4.82.

With O=C1CC(c2ccccc2)CC(=O)C1=CNCCN1CCN(CCO)CC1 (stereo not drawn) [Compound 8, 2-(((2-(4-(2-hydroxyethyl)piperazin-1-yl)ethyl)amino)methylene)-5-phenylcyclohexane-1,3-dione] as the molecule, how does the pIC50 read?
The pIC50 was over 5.52.

How did the pIC50 turn out when O=C1Nc2c(ccc3ccccc23)C(=O)/C1=C\NCCN1CCN(CCO)CC1 [Compound 331, 3-(((2-(4-(2-hydroxyethyl)piperazin-1-yl)ethyl)amino)methylene) benzo[h]quinoline-2,4(1H,3H)-dione] was run?
The pIC50 was over 5.52.

O=C1CC(c2ccc(-n3ccnc3)cc2)CC(=O)C1=CNCCN1CCN(CCO)CC1 (stereo not drawn) [Compound 87, 5-(4-(1H-imidazol-1-yl)phenyl)-2-(((2-(4-(2-hydroxyethyl)piperazin-1-yl)ethyl)amino)methylene) cyclohexane-1,3-dione] was tested. Which pIC50 did it give?
The pIC50 was 4.00 to 4.82.

With CCOc1ncnc2c1ncn2-c1ccc(C2CC(=O)C(=CNCCN3CCN(CCO)CC3)C(=O)C2)cc1 (stereo not drawn) [Compound 76, 5-(4-(6-ethoxy-9H-purin-9-yl)phenyl)-2-(((2-(4-(2-hydroxyethyl)piperazin-1-yl)ethyl)amino)methylene) cyclohexane-1,3-dione] as the molecule, how does the pIC50 read?
The pIC50 was 4.00 to 4.82.

O=C1CCN(c2ccccc2)C(=O)/C1=C\NCCN1CCN(CCO)CC1 [Compound 99, 3-(((2-(4-(2-hydroxyethyl)piperazin-1-yl)ethyl)amino)methylene)-1-phenylpiperidine-2,4-dione] was tested. Which pIC50 did it give?
The pIC50 was 3.00 to 4.00.

With COCCOCCOc1cccc(C2CC(=O)C(=CNCCN3CCN(CCO)CC3)C(=O)C2)c1 (stereo not drawn) [Compound 34, 2-(((2-(4-(2-hydroxyethyl)piperazin-yl)ethyl)amino)methylene)-5-(3-(2-(2-methoxyethoxy)ethoxy)phenyl)cyclohexane-1,3-dione] as the molecule, how does the pIC50 read?
Its pIC50 is over 5.52.

How did the pIC50 turn out when CN(C)CCNC=C1C(=O)CC(C(=O)Nc2ccc(Br)cc2)CC1=O (stereo not drawn) [Compound 360, N-(4-bromophenyl)-4-(((2-(dimethylamino)ethyl)amino)methylene)-3,5-dioxocyclohexane-1-carboxamide] was run?
Its pIC50 is 4.82 to 5.52.

CN(C)C=C1C(=O)CC(c2cccn2Cc2ccccc2)CC1=O (stereo not drawn) [Compound 288, 5-(1-benzyl-1H-pyrrol-2-yl)-2-((dimethylamino)methylene) cyclohexane-1,3-dione] was tested. Which pIC50 did it give?
The pIC50 was 4.82 to 5.52.

O=C1CC(c2ccc(F)cc2)CC(=O)C1=CNCCN1CCN(CCO)CC1 (stereo not drawn) [Compound 49, 5-(4-fluorophenyl)-2-(((2-(4-(2-hydroxyethyl)piperazin-1-yl)ethyl)amino)methylene) cyclohexane-1,3-dione] was tested. Which pIC50 did it give?
Its pIC50 is over 5.52.

With C[C@H](NC=C1C(=O)CC(c2ccccc2)CC1=O)C(=O)OCc1ccccc1 (stereo partly drawn) [Compound 122, benzyl ((2,6-dioxo-4-phenylcyclo-hexylidene)methyl)-L-alaninate] as the molecule, how does the pIC50 read?
The pIC50 was 3.00 to 4.00.

With O=C1CC(c2ccccc2)CC(=O)C1=CN[C@@H](Cc1c[nH]cn1)C(=O)O (stereo partly drawn) [Compound 126, ((2,6-dioxo-4-phenylcyclo-hexylidene)methyl)-L-histidine] as the molecule, how does the pIC50 read?
The pIC50 was 4.00 to 4.82.

Cc1ccc(C2CC(=O)C(=CNCCN3CCN(CCCO)CC3)C(=O)C2)cc1 (stereo not drawn) [Compound 230, 2-(((2-(4-(3-hydroxypropyl)piperazin-1-yl)ethyl)amino)methylene)-5-(p-tolyl) cyclohexane-1,3-dione] was tested. Which pIC50 did it give?
The pIC50 was over 5.52.

With O=C1Nc2c(cccc2[N+](=O)[O-])C(=O)/C1=C/NCCN1CCN(CCO)CC1 [Compound 318, 3-(((2-(4-(2-hydroxyethyl)piperazin-1-yl)ethyl)amino)methylene)-8-nitroquinoline-2,4(1H,3H)-dione] as the molecule, how does the pIC50 read?
Its pIC50 is over 5.52.

With O=C1CC(c2ccccc2O)CC(=O)C1=CO (stereo not drawn) [Compound 442, 2-(hydroxymethylene)-5-(2-hydroxyphenyl)cyclo-hexane-1,3-dione] as the molecule, how does the pIC50 read?
The pIC50 was 4.00 to 4.82.

O=C1CC(c2ccnc3ccccc23)CC(=O)C1=CO (stereo not drawn) [Compound 431, 2-(hydroxymethylene)-5-(4-quinoline)cyclohexane-1,3-dione] was tested. Which pIC50 did it give?
The pIC50 was 4.82 to 5.52.

O=C1CC(c2cccc(Oc3ccncc3)c2)CC(=O)C1=CNCCN1CCN(CCO)CC1 (stereo not drawn) [Compound 75, 2-(((2-(4-(2-hydroxyethyl)piperazin-1-yl)ethyl)amino)methylene)-5-(3-(pyridin-4-yloxy)phenyl) cyclohexane-1,3-dione] was tested. Which pIC50 did it give?
The pIC50 was 4.82 to 5.52.

With CN(C)CCNC=C1C(=O)CC(c2cc(C(F)(F)F)ccc2Cl)CC1=O (stereo not drawn) [Compound 381, 5-(2-chloro-5-(trifluoromethyl)phenyl)-2-(((2-(dimethylamino)ethyl)amino)methylene) cyclohexane-1,3-dione] as the molecule, how does the pIC50 read?
Its pIC50 is over 5.52.

With O=C1Nc2ccc(C(F)(F)F)cc2C(=O)/C1=C/NCCN1CCN(CCO)CC1 [Compound 317, 3-(((2-(4-(2-hydroxyethyl)piperazin-1-yl)ethyl)amino)methylene)-6-(trifluoromethyl) quinoline-2,4(1H,3H)-dione] as the molecule, how does the pIC50 read?
The pIC50 was 4.82 to 5.52.

O=C1CC(c2ccccc2F)CC(=O)C1=CO (stereo not drawn) [Compound 416, 2-(hydroxymethylene)-5-(2-fluorophenyl)cyclo-hexane-1,3-dione] was tested. Which pIC50 did it give?
Its pIC50 is over 5.52.

With COc1cccc(C2CC(=O)C(=CNCCN(C)C)C(=O)C2)c1 (stereo not drawn) [Compound 337, 2-(((2-(dimethylamino)ethyl)amino)methylene)-5-(3-methoxyphenyl) cyclohexane-1,3-dione] as the molecule, how does the pIC50 read?
Its pIC50 is over 5.52.
